Measured values as given in patent US20250034127A1, “AUTOPHAGY INDUCING COMPOUNDS AND USES THEREOF, IN PARTICULAR FOR DISEASES OF THE CNS” (Samsara Therapeutics Inc., priority 2021, published 2025).

Tests used:
[1] = system: SH-SY5Y cells; test: Acidic vesicle formation in SH-SY5Y cells (LysoTracker Deep Red); format: cell-based, human; details: 24 hours, relative to DMSO-treated control
Experimental: This is evidence for significant stimulation of autophagy by this compound under these conditions. SH-SY5Y cells are a human-derived neuroblastoma cell line widely used in in vitro models of neurological disorders (Ross R A, Spengler B A, Biedler J L. Coordinate morphological and biochemical interconversion of human neuroblastoma cells. J Natl Cancer Inst. 1983 October; 71 (4): 741-7. PMID: 6137586).
A brief description of the procedure employed is outlined here: • Day 1: Cells were seeded at 15K cells/well in the middle 60 wells of 6×96 well Cellvis imaging plates • Day 2: Media was replaced with 90 μl of DMEM/F12 (+10% FBS/1% P/S) containing NucBlue Live and the cells were treated with 10 μl of compound (10× concentrated) in triplicate for 24 hours. • Day3: Treatment was removed and cells were incubated for 30 minutes with LysoTracker™ Deep Red dye. Cells were washed twice with media and immediately imaged on EVOS M7000 at ×20 (6 images per well, 30 minutes imaging time/plate). Images were analysed using Celleste Image analysis software.

[2] = system: primary culture of dopaminergic Tyrosine hydroxylase (TH)-positive neurons; test: Cellular model of Parkinson's disease (MPTP/MPP+ injury); format: cell-based, rat
Text: This model (run by Neuro-Sys SAS, France) is based on a primary culture of dopaminergic Tyrosine hydroxylase (TH)-positive neurons injured with the dopaminergic neurons-specific toxin (DA-toxin) 1-methyl-4-phenyl-1,2,3,6 tetrahydropyridine (MPTP, a prodrug of MPP^+) (Dauer and Przedborski, 2003). Any substances reducing DA-toxin neurotoxicity may be useful as a new therapeutic agent for the treatment or prevention of PD.
Primary culture of mesencephalic neurons: Rat dopaminergic neurons were cultured as described by Visanji et al., 2008 and Callizot et al., 2019. Briefly, pregnant female rat (Wistar) of 15 days of gestation were killed using a deep anesthesia with CO2 chamber and a cervical dislocation. The midbrains obtained from 15-day-old rat embryos (Janvier, France) were dissected under a microscope. The embryonic midbrains will be removed and placed in ice-cold medium of Leibovitz (L15) containing 2% of Penicillin-Streptomycin (PS) and 1% of bovine serum albumin (BSA). The ventral portion of the mesencephalic flexure, a region of the developing brain rich in dopaminergic neurons, was used for the cell preparations.
The midbrains were dissociated by trypsinisation for 20 min at 37° C. (solution at a final concentration of 0.05% trypsin and 0.02% EDTA). The reaction was stopped by the addition of Dulbecco's modified Eagle's medium (DMEM) containing DNAase I grade II (0.5 mg/mL) and 10% of foetal calf serum (FCS). Cells were then mechanically dissociated by 3 passages through a 10 ml pipette. Cells were then centrifuged at 180×g for 10 min at +4° C. on a layer of BSA (3.5%) in L15 medium. The supernatant was discarded, and the cell pellets re-suspended in a defined culture medium consisting of Neurobasal supplemented with B27 (2%), L-glutamine (2 mM) and 2% of PS solution and 10 ng/mL of Brain-derived neurotrophic factor (BDNF) and 1 ng/ml of Glial-Derived Neurotrophic Factor (GDNF). Viable cells were counted in a Neubauer cytometer using the trypan blue exclusion test. The cells were seeded at a density of 40,000 cells/well in 96 well-plates (pre-coated with poly-L-lysine) and maintained in a humidified incubator at 37° C. in 5% CO2/95% air atmosphere. Half of the medium was changed every 2 days with fresh medium. The wells of first and last lines and columns […] (to avoid any edge effect) and were be filled with sterile water.
• i) Pre-incubation. On day 6 of culture, the test compounds were dissolved in PBS or DMSO and incubated for 1 hour before the MPTP exposure. • ii) Injury. One hour after the application of test compound, MPTP was added to a final concentration of 4 μM, diluted in control medium still in presence of compounds/inhibitors for 48 h. Test compounds were tested on one culture in 96-well plate (n=6 culture wells per condition).
Immunostaining: TH and α-Synuclein. 48 Hours after intoxication, the cell culture supernatant was removed, and the cells were fixed by a solution of 4% paraformaldehyde in PBS, pH=7.3 for 20 min at room temperature. The cells were washed twice in PBS, and then permeabilized. Non-specific sites were blocked with a solution of PBS containing 0.1% of saponin and 1% FCS for 15 min at room temperature. The cultures were incubated with: (a) monoclonal anti-Tyrosine Hydroxylase (TH) antibody produced in mouse at dilution of 1/10000 in PBS containing 1% FCS, 0.1% saponin, for 2 hours at room temperature, and (b) polyclonal anti-alpha synuclein (α-synuclein) antibody produced in rabbit at dilution of 1/200 in PBS containing 1% FCS, 0.1% saponin, for 2 h at room temperature.
Automatic computer analysis. For each condition, 20 pictures (representing the whole well area) were automatically taken using ImageXpress® (Molecular Devices) at 10× magnification (20 pictures, for TH and α-synuclein into TH neurons) using the same acquisition parameters. From images, analyses was directly and automatically performed by MetaXpress® (Molecular Devices). […]

[3] = system: Human osteosarcoma U2OS cells; test: Assay to measure lysosome and autolysosome (acidic vesicle) formation in U2OS cells; format: cell-based; details: for activation at 0.8 µM: Homo sapiens, concentration of 0.8 μM, read-out: Activity (percentage increase in acidic vesicle formation over the DMSO-treated control); for acidic vesicle formation relative to a DMSO-treated control: concentration of 10 μM, 24 hours
Experimental: Lysosomes play a fundamental role in the autophagic pathway by fusing with autophagosomes and creating ‘autolysosomes’ in order to digest their contents. Stimulation of lysosome and autolysosome formation by a compound is indicative of a stimulation of autophagy. The ability of compounds to stimulate lysosome and autolysosome formation, and thus autophagy, in live cells was assessed via fluorescent microscopy using various fluorescent stains for labelling and tracking acidic organelles (including lysosomes and autolysosomes) such as: LysoView™ 650 (70059 and 70059-T, Biotium), Lyso View™633 (70058 and 70058-T, Biotium) and LysoTracker™ Deep Red (L12492, ThermoFisher Scientific). The cellular phenotype was quantitatively assessed for the induction of acidic vesicle formation and compared to a non-treated control, thus providing a measure of the ability of the compound under investigation to stimulate autophagy.
Representative procedure using LysoView™ 633 dye or LysoTracker™ Deep Red dye: Human osteosarcoma U2OS cells (40,000 cells/well) were seeded in a 24 well glass bottom plate (Sensoplate, Greiner Bio-One) and were incubated overnight in a humidified atmosphere at 37° C. and 5% CO2. Cells were grown in DMEM (Gibco) supplemented with 10% Fetal Bovine Serum (FBS) and 100 units/ml penicillin and 100 μg/ml streptomycin (Invitrogen). After the attachment period, cells were treated with different compounds of interest (at various concentrations in DMSO) or DMSO (non-treated control) in cell culture medium and were incubated for 24 hours. Compound-containing medium was removed and cells were incubated with pre-warmed cell culture medium containing 1× Lyso View™ 633 (70058 and 70058-T, Biotium) or 50 nM LysoTracker™ Deep Red (L12492, ThermoFisher Scientific) for 45 minutes at 37° C. Finally, cell nuclei were stained for 10 minutes using Hoechst 33342 (1 μg/mL) and then the medium was replaced with fresh medium. The 24 well plate was then fitted into a heated stage on the microscope and cells maintained at 37° C. Images were captured using appropriate filter set for Cy5 and DAPI detection with the EVOS M7000 Microscope (ThermoFisher Scientific). The cellular phenotype was visually assessed for the induction of acidic vesicle formation relative to the non-treated control; multiple images were acquired and analysed using ImageJ or Cell Profiler.

Row | Compound | Fold change in acidic vesicle formation at compound concentration of 0.8 μM [1] [fold] | Fold change in acidic vesicle formation at compound concentration of 10 μM [1] [fold] | effects in the in vitro model of PD based on MPP+ injury [2] | increase in the number of dopaminergic TH positive neurons ([2]; 100 nM, compared to MPTP injury alone) [%] | decrease in α-syn area per dopaminergic TH positive neuron ([2]; 1 μM, 500 nM and 100 nM, compared to MPP+ injury alone) [%] | activation at 0.8 µM [3] [%] | acidic vesicle formation relative to a DMSO-treated control [3]
1 | C[C@H]1CN(C(=O)c2cc(-c3cnn(-c4ccccc4)c3)c[nH]2)CCN1 [Compound 3, (3S)-3-methyl-1-[4-(1-phenyl-1H-pyrazol-4-yl)-1H-pyrrole-2-carbonyl]piperazine] | 1.6 | 3.5 | – | – | – | – | –
2 | O=C(O)C1CCCN1C(=O)c1csc(-c2cnn(-c3ccccc3)c2)n1 (stereo not shown) [Compound 144, 1-[2-(1-phenyl-1H-pyrazol-4-yl)-1,3-thiazole-4-carbonyl]pyrrolidine-2-carboxylic acid] | – | – | positive effects | 25 | > 15 | – | –
3 | CCN1CCC(N(C(=O)c2csc(-c3cnn(-c4ccccc4)c3)n2)C(C)C)CC1 [Compound 218, N-(1-ethylpiperidin-4-yl)-2-(1-phenyl-1H-pyrazol-4-yl)-N-(propan-2-yl)-1,3-thiazole-4-carboxamide] | 1.6 | 4.8 | – | – | – | 30 to 50 | –
4 | C[C@H]1CN(C(=O)c2csc(-c3cnn(-c4ccccc4)n3)n2)CCN1 [Compound 238, (3S)-3-methyl-1-[2-(2-phenyl-2H-1,2,3-triazol-4-yl)-1,3-thiazole-4-carbonyl]piperazine] | 2.1 | 2.9 | – | – | – | – | –
5 | CC(C)(C)N1CCC(NC(=O)c2csc(-c3cnn(-c4ccccc4)c3)n2)CC1 [Compound 248, N-(1-tert-butylpiperidin-4-yl)-2-(1-phenyl-1H-pyrazol-4-yl)-1,3-thiazole-4-carboxamide] | 2.2 | 1.9 | – | – | – | – | –
6 | C[C@H]1CN(C(=O)c2cc(-c3cnn(-c4ccccc4)c3)c[nH]2)CCN1 [Compound 255, (3S)-3-methyl-1-[4-(1-phenyl-1H-pyrazol-4-yl)-1H-pyrrole-2-carbonyl]piperazine] | – | – | – | – | – | 50 to 100 | –
7 | CCN1CCC(N(C)C(=O)c2cc(-c3cnn(-c4ccccc4)c3)c[nH]2)CC1 [Compound 256, N-(1-ethylpiperidin-4-yl)-N-methyl-4-(1-phenyl-1H-pyrazol-4-yl)-1H-pyrrole-2-carboxamide] | 1.8 | 2.7 | – | – | – | 30 to 50 | –
8 | CCN1CCC(NC(=O)c2cc(-c3cnn(-c4ccccc4)c3)c[nH]2)CC1 [Compound 257, N-(1-ethylpiperidin-4-yl)-4-(1-phenyl-1H-pyrazol-4-yl)-1H-pyrrole-2-carboxamide] | 1.9 | 2.6 | – | – | – | 50 to 100 | –
9 | CCN1CCC(N(C)C(=O)c2cc(-c3nnc(-c4ccccc4)s3)cs2)CC1 [Compound 258, N-(1-ethylpiperidin-4-yl)-N-methyl-4-(5-phenyl-1,3,4-thiadiazol-2-yl)thiophene-2-carboxamide] | – | – | – | – | – | 10 to 30 | only a slight increase
10 | CCN1CCC(NC(=O)c2cc(-c3nnc(-c4ccccc4)s3)cs2)CC1 [Compound 259, N-(1-ethylpiperidin-4-yl)-4-(5-phenyl-1,3,4-thiadiazol-2-yl)thiophene-2-carboxamide] | 2.3 | 3.6 | – | – | – | 10 to 30 | only a slight increase
